Reference: patent US20210323977A1, “PYRROLIDINYL AMIDE COMPOUNDS FOR THE TREATMENT OF AUTOIMMUNE DISEASE” (Hoffmann-La Roche Inc., priority 2018, published 2021)

Target: T1, human TLR7 (Homo sapiens, UniProt Q9NYK1)
T1 sequence (Q9NYK1 27-1049): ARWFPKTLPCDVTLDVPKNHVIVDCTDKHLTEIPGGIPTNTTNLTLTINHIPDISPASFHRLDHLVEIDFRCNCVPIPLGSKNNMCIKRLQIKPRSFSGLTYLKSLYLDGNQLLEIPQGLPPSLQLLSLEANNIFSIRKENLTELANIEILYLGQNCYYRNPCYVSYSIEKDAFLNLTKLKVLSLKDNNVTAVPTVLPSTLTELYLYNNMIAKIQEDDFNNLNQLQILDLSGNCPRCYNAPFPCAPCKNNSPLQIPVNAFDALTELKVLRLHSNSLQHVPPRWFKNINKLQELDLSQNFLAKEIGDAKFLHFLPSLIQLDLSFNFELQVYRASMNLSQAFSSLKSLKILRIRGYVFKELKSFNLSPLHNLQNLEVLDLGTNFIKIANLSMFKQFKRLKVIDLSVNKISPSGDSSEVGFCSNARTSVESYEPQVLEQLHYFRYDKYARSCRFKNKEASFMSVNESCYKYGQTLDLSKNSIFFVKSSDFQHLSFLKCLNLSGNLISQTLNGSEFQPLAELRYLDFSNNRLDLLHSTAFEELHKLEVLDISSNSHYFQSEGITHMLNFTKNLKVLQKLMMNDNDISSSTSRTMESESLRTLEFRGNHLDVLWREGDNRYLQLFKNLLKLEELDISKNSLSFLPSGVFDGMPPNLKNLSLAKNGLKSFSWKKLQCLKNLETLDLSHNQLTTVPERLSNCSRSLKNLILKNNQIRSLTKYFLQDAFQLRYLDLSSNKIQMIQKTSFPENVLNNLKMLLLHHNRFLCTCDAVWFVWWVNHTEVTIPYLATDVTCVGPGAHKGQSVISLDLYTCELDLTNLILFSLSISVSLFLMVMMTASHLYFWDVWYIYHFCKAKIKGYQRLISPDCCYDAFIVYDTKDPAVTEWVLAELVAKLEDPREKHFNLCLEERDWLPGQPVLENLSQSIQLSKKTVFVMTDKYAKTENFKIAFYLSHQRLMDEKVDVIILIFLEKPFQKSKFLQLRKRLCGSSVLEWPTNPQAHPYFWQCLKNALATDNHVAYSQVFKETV
Assay: HEK293-Blue-hTLR-7 cells assay
Assay type: cell-based
Settings: HEK293-Blue-hTLR7 cells, SEAP reporter, R848 stimulation, 20 hrs
Description: HEK293-Blue-hTLR-7 Cells Assay:
A stable HEK293-Blue-hTLR-7 cell line was purchased from InvivoGen (Cat. #: hkb-htlr7, San Diego, Calif., USA). These cells were originally designed for studying the stimulation of human TLR7 by monitoring the activation of NF-κB. A SEAP (secreted embryonic alkaline phosphatase) reporter gene was placed under the control of the IFN-β minimal promoter fused to five NF-κB and AP-1-binding sites. The SEAP was induced by activating NF-κB and AP-1 via stimulating HEK-Blue hTLR7 cells with TLR7 ligands. Therefore the reporter expression was declined by TLR7 antagonist under the stimulation of a ligand, such as R848 (Resiquimod), for incubation of 20 hrs. The cell culture supernatant SEAP reporter activity was determined using QUANTI-Blue™ kit (Cat. #: rep-qb1, Invivogen, San Diego, Ca, USA) at a wavelength of 640 nm, a detection medium that turns purple or blue in the presence of alkaline phosphatase.
HEK293-Blue-hTLR7 cells were incubated at a density of 250,000˜450,000 cells/mL in a volume of 170 μL in a 96-well plate in Dulbecco's Modified Eagle's medium (DMEM) containing 4.5 g/L glucose, 50 U/mL penicillin, […], […], 2 mM L-glutamine, 10% (v/v) heat-inactivated fetal bovine serum with addition of 20 sL test compound in a serial dilution in the presence of final DMSO at 1% and 10 μL of 20 uM R848 in above DMEM, perform incubation under 37° C. in a CO2 incubator for 20 hrs. Then 20 μL of the supernatant from each well was incubated with 180 sL Quanti-blue substrate solution at 37° C. for 2 hrs and the absorbance was read at 620-655 nm using a spectrophotometer. The signalling pathway that TLR7 activation leads to downstream NF-κB activation has been widely accepted, and therefore similar reporter assay was modified for evaluating TLR7 antagonist.

SMILES	IC50 [nM]
N#Cc1ccc(N2CC(C(=O)NCC3CNCCO3)C3(CC3)C2)c2nccnc12 (stereo not shown) [Example 13, 5-(8-Cyanoquinoxalin-5-yl)-N-(morpholin-2-ylmethyl)-5-azaspiro[2.4]heptane-7-carboxamide]	18
CN1CCC(NC(=O)C2CN(c3ccc(C#N)c4ncccc34)CC23CC3)CC1 (single isomer, unassigned) [Example 41A, 5-(8-Cyano-5-quinolyl)-N-(1-methyl-4-piperidyl)-5-azaspiro[2.4]heptane-7-carboxamide]	79
CN1CCC(NC(=O)[C@@H]2CN(c3ccc(C#N)c4ncccc34)C[C@H]2C2CC2)CC1 (relative stereo) [Example 14, Trans-1-(8-cyano-5-quinolyl)-4-cyclopropyl-N-(1-methyl-4-piperidyl)pyrrolidine-3-carboxamide]	20
N[C@@H]1C[C@H](NC(=O)C2CN(c3ccc(C(F)(F)F)c4nccnc34)CC23CC3)[C@@H]2C[C@@H]21 (stereo partly drawn) [Example 36, N-[(1R,2S,4R,5S)-4-amino-2-bicyclo[3.1.0]hexanyl]-5-[8-(trifluoromethyl)quinoxalin-5-yl]-5-azaspiro[2.4]heptane-7-carboxamide]	57
C[C@H]1CN(c2ccc(C#N)n3nccc23)C[C@@H]1C(=O)NC1CCN(C)CC1 [Example 44, (3R,4R)-1-(7-cyanopyrazolo[1,5-a]pyridin-4-yl)-4-methyl-N-(1-methyl-4 piperidyl)pyrrolidine-3-carboxamide]	84
CN1CCC(NC(=O)[C@H]2CN(c3ccc(C(F)(F)F)c4nccnc34)C[C@@H]2C(F)(F)F)CC1 [Example 2, (3R,4R)—N-(1-methyl-4-piperidyl)-4-(trifluoromethyl)-1-[8-(trifluoromethyl)quinoxalin-5-yl]pyrrolidine-3-carboxamide]	4
C[C@H]1CN(c2ccc(C#N)c3ncccc23)C[C@@H]1C(=O)NC1CCN(C)CC1 [Example 16, (3R,4R)-1-(8-cyano-5-quinolyl)-4-methyl-N-(1-methyl-4-piperidyl)pyrrolidine-3-carboxamide]	22
C[C@H]1CN(c2ccc([N+](=O)[O-])c3ncccc23)C[C@@H]1C(=O)NC1CCN(C)CC1 [Example 27, (3R,4R)-4-Methyl-N-(1-methyl-4-piperidyl)-1-(8-nitro-5-quinolyl)pyrrolidine-3-carboxamide]	38
C[C@H]1CN(c2ccc(C#N)c3nccnc23)C[C@@H]1C(=O)NC1CCN(C2CCNCC2)CC1 [Example 60, (3R,4R)-1-(8-cyanoquinoxalin-5-yl)-4-methyl-N-[1-(4-piperidyl)-4-piperidyl]pyrrolidine-3-carboxamide]	492
CN1CCC(NC(=O)[C@H]2CN(c3ccc(C#N)c4nccnc34)C[C@@H]2C(F)(F)F)CC1 [Example 1, (3R,4R)-1-(8-cyanoquinoxalin-5-yl)-N-(1-methyl-4-piperidyl)-4-(trifluoromethyl) pyrrolidine-3-carboxamide]	3
N#Cc1ccc(N2C[C@H](C(=O)NC3CCN(C4CCNCC4)CC3)[C@@H](C(F)(F)F)C2)c2nccnc12 [Example 35, (3R,4R)-1-(8-Cyanoquinoxalin-5-yl)-N-[1-(4-piperidyl)-4-piperidyl]-4-(trifluoromethyl)pyrrolidine-3-carboxamide]	55
NC1CC(NC(=O)C2CN(c3ccc(C(F)(F)F)c4nccnc34)CC23CC3)C1 (stereo not shown) [Example 38, N-(3-Aminocyclobutyl)-5-[8-(trifluoromethyl)quinoxalin-5-yl]-5-azaspiro[2.4]heptane-7-carboxamide]	59
O=C(NC1CC2(CCNCC2)C1)C1CN(c2ccc(C(F)(F)F)c3nccnc23)CC12CC2 (stereo not shown) [Example 34, N-(7-azaspiro[3.5]nonan-2-yl)-5-[8-(trifluoromethyl)quinoxalin-5-yl]-5-azaspiro[2.4]heptane-7-carboxamide]	46
N#Cc1ccc(N2CC(C(=O)NC[C@H]3CNCCO3)C3(CC3)C2)c2nccnc12 (single isomer, unassigned) [Example 70B]	233
N[C@H]1CC[C@H](NC(=O)C2CN(c3ccc(C(F)(F)F)c4nccnc34)CC23CC3)CC1 (stereo partly shown) [Example 24, N-(4-aminocyclohexyl)-5-[8-(trifluoromethyl)quinoxalin-5-yl]-5-azaspiro[2.4]heptane-7-carboxamide]	29
CC(C)[C@@H]1CN(c2ccc(C#N)c3ncccc23)C[C@H]1C(=O)NC1CCN(C)CC1 (relative stereo) [Example 37, Trans-1-(8-cyano-5-quinolyl)-4-isopropyl-N-(1-methyl-4-piperidyl)pyrrolidine-3-carboxamide]	59
